# Measurements taken from publication PMC10033279 (The Journal of Biological Chemistry, 2023).
# What was measured:
# [1] = target: T1, NADH:quinone oxidoreductase (NQO), PA1024 (Pseudomonas aeruginosa, UniProt Q9I4V0); experiment: steady-state NADH oxidation at […] nm, ping-pong global fit; type: biochemical; conditions: varied NADH; 20 mM KPi, 200 mM NaCl, pH 7.0, 25 °C; read-out: KBQ
# T1 construct: full-length gene PA1024 in pET20b(+), expressed in E. coli Rosetta(DE3)pLysS, purified; EC 1.6.5.9
# T1 sequence (Q9I4V0 whole entry): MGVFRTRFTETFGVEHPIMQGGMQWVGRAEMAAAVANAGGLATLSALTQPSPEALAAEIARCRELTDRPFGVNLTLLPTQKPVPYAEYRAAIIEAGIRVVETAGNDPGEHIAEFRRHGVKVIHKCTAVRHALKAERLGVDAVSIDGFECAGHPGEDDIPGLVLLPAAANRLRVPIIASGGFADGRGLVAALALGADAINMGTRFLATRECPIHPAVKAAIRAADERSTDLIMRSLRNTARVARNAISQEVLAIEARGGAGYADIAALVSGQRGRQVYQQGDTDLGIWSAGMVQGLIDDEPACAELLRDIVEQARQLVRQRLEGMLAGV
# [2] = target: NADH:quinone oxidoreductase (NQO), PA1024 (Pseudomonas aeruginosa, UniProt Q9I4V0, Q80E); conditions: read-out: KBQ; varied NADH; 20 mM KPi, 200 mM NaCl, pH 7.0, 25 °C
# NADH:quinone oxidoreductase (NQO), PA1024 (Pseudomonas aeruginosa, UniProt Q9I4V0, Q80E), sequence (Q9I4V0 whole entry Q80E): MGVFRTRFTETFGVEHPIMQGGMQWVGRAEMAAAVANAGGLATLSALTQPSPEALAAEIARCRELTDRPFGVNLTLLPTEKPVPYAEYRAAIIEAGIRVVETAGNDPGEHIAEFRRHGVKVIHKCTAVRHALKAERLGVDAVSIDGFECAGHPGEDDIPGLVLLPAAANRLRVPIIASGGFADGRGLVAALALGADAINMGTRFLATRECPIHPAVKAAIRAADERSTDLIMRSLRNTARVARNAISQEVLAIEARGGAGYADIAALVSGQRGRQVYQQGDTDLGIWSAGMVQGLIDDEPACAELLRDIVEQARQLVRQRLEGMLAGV
# [3] = target: NADH:quinone oxidoreductase (NQO), PA1024 (Pseudomonas aeruginosa, UniProt Q9I4V0, Q80G); conditions: read-out: KBQ; varied NADH; 20 mM KPi, 200 mM NaCl, pH 7.0, 25 °C
# NADH:quinone oxidoreductase (NQO), PA1024 (Pseudomonas aeruginosa, UniProt Q9I4V0, Q80G), sequence (Q9I4V0 whole entry Q80G): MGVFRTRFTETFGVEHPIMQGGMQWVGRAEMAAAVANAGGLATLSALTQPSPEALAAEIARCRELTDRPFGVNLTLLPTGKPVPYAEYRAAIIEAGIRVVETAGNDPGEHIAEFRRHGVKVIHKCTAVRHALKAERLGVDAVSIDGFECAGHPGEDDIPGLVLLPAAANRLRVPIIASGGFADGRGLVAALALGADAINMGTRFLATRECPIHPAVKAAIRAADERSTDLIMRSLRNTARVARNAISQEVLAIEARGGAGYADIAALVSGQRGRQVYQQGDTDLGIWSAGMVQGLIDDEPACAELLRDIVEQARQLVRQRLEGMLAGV
# [4] = target: T1, NADH:quinone oxidoreductase (NQO), PA1024; experiment: steady-state NADH oxidation at […] nm, Michaelis-Menten fit; type: biochemical; conditions: 100 μM NADH fixed (not saturating; apparent; unreliable); 20 mM KPi, 200 mM NaCl, pH 7.0, 25 °C
# [5] = target: T1, NADH:quinone oxidoreductase (NQO), PA1024; experiment: UV-visible absorption, FMN extraction by heat denaturation; type: binding; conditions: 10 mM Tris-Cl, 200 mM NaCl, 10% glycerol, pH 8.0, 25 °C; stoichiometry of co-purified FMN
# [6] = target: T1, NADH:quinone oxidoreductase (NQO), PA1024; experiment: anaerobic stopped-flow flavin reduction at […] nm; type: biochemical; conditions: 20 mM KPi, 200 mM NaCl, pH 7.0, 25 °C, unreliable (upper-bound estimate, saturated at lowest NADH)
# [7] = target: T1, NADH:quinone oxidoreductase (NQO), PA1024; experiment: anaerobic flavin reduction, absorption spectra; type: biochemical; conditions: 500 μM NADPH, pH 7, 25 °C, poor substrate
structure (smiles),measurement,setting,value
"O=C1C=CC(=O)C=C1 [1,4-benzoquinone]",Km,[1],30 ± 1 µM
same,Km,[2],15 ± 1 µM
same,Km,[3],20 ± 1 µM
"COC1=C(OC)C(=O)C(C)=CC1=O [2,3-dimethoxy-5-methyl-1,4-benzoquinone]",^app(Km),[4],60 ± 1 µM
"CC1=CC(=O)C=CC1=O [2-methyl-1,4-benzoquinone]",^app(Km),[4],96 ± 1 µM
"O=C1C=CC(=O)c2c(O)cccc21 [5-hydroxy-1,4-naphthoquinone]",^app(Km),[4],21 ± 1 µM
Cc1cc2nc3c(=O)[nH]c(=O)nc-3n(C[C@H](O)[C@H](O)[C@H](O)COP(=O)(O)O)c2cc1C [FMN],FMN/Protein,[5],0.40
NC(=O)C1=CN([C@@H]2O[C@H](COP(=O)(O)OP(=O)(O)OC[C@H]3O[C@@H](n4cnc5c(N)ncnc54)[C@H](O)[C@@H]3O)[C@@H](O)[C@H]2O)C=CC1 [NADH],Kd (μM),[6],<= ≤ 3 μM
NC(=O)C1=CN([C@@H]2O[C@H](COP(=O)(O)OP(=O)(O)OC[C@H]3O[C@@H](n4cnc5c(N)ncnc54)[C@H](OP(=O)(O)O)[C@@H]3O)[C@@H](O)[C@H]2O)C=CC1 [NADPH],% flavin reduction over 10 min at 500 μM,[7],~ 10%
